Data on 6 compounds can be found in PMC4389562, “Antigiardial activity of novel triazolyl-quinolone-based chalcone derivatives: when oxygen makes the difference” (Frontiers in Microbiology, 2015).

One data set relates to Giardia.
Assay: not given
The settings on record: anaerobic conditions; ref Cedillo-Rivera and Munoz, 1992; read-out: IC50 against Giardia under anaerobic conditions; cited from earlier work. Also on record: method as in Cedillo-Rivera and Munoz, 1992.
Usually IC50 stands for the concentration that inhibits the measured activity by half. For the compound `CCCSc1ccc2nc(NC(=O)OC)[nH]c2c1` [albendazole], the half-maximal inhibitory concentration (IC50) is below 0.1 µM.

Test system in another data set: not given
Assay: not given
Conditions: not given
The melting point is the temperature, or range, at which the solid turns liquid. The compound `Cc1ccc(-n2cc(Cn3c(=O)c(/C=C/C(=O)c4ccc(Cl)cc4)cc4ccccc43)nn2)cc1` [Compound 35] came in with a melting point of 196 to 198 °C.

`Cc1ccc(-n2cc(Cn3c(=O)c(/C=C/C(=O)c4ccc(F)cc4)cc4ccccc43)nn2)cc1` [Compound 34] displayed a melting point of 215 to 217 °C.

`COc1cccc(C(=O)/C=C/c2cc3ccccc3n(Cc3cn(-c4ccc(F)cc4)nn3)c2=O)c1` [Compound 48] registered a melting point of 220 to 222 °C.

`O=C(/C=C/c1cc2ccccc2n(Cc2cn(-c3ccc(F)cc3)nn2)c1=O)c1cccc(F)c1` [Compound 42] gave a melting point of 203 to 205 °C.

The compound `O=C(/C=C/c1cc2ccccc2n(Cc2cn(-c3ccc(Cl)cc3)nn2)c1=O)c1ccccc1F` [Compound 50] showed a melting point of 242 to 244 °C.

The next data set has as its system Caco-2 cells. Put plainly: Counter-screen on Caco-2 cells, ATP level by luminescence (ATPlite), 48 h incubation. As to conditions: Homo sapiens, Caco-2, 48 h, atmospheric O2, 5% CO2, 48 h, 37 °C. It is filed as cell-based, human. As to the method:
Trophozoites of G. intestinalis strain WB clone C6 (ATCC No. 50803TM) were cultured axenically at 37^∘C in 25-cm^2 flasks containing Diamond’s TYI-S-33 medium supplemented with 10% bovine calf serum, 1 mg/mL bovine bile, 0.1 g/L streptomycin and 100 U/mL penicillin. […] Human epithelial colorectal adenocarcinoma (Caco-2) cells were grown in 25-cm^2 flasks in EMEM supplemented with 1% (v/v) non-essential amino acids, 2 mM glutamine, 5% (v/v) fetal bovine serum, 0.1 g/L streptomycin, and 100 U/mL penicillin.
Cells were detached with 0.5% trypsin-EDTA and seeded in sterile 96-well white clear-bottom plates at the same density of Giardia trophozoites and at increasing concentration of the compound to be tested, as described above. The assays were carried out exactly as reported for the Giardia trophozoites, except that the plates were incubated (still at 37^∘C) at atmospheric O2 level, 5% CO2, and 95% humidity. Each drug concentration was tested in at least seven replicates. MTZ was used as an internal […] control in the assay. Following 48 h incubation with each compound, according to the manufacturer instructions, 100 μL of the ATPlite^TM luminescence assay system (Perkin Elmer) was added to each well for one-step lysis and ATP level detection by luminescence.
Luminometric data were calibrated using ATP standard curves and normalized to the ATP level measured in control DMSO-treated cells (taken as 100%). The measured ATP level percentage was plotted as a function of the compound concentration and the half-maximal inhibitory concentration (IC50) was obtained by fitting the resulting titration profile to the Hill equation ([Goutelle et al., 2008]). The selectivity index (SI) of the compounds was then calculated as the ratio between the IC50 value measured on human cells over the value determined on Giardia trophozoites (SI = IC50,Caco-2/IC50,Giardia).
Selectivity of the newly synthesized compounds toward Giardia was assessed by running a counter-screen on human epithelial Caco-2 cells. […] This allowed us to calculate the compounds SI, defined as the ratio between the IC50 value measured on human cells over the value determined on Giardia trophozoites.
A general note: Counterscreens check selectivity or assay interference.
For the compound `Cc1ccc(-n2cc(Cn3c(=O)c(/C=C/C(=O)c4ccc(Cl)cc4)cc4ccccc43)nn2)cc1` [Compound 35], the half-maximal inhibitory concentration (IC50) stood at 7 µM.

As to `Cc1ccc(-n2cc(Cn3c(=O)c(/C=C/C(=O)c4ccc(F)cc4)cc4ccccc43)nn2)cc1` [Compound 34], 9.4 µM corresponded to half-maximal inhibition (IC50).

The compound `COc1cccc(C(=O)/C=C/c2cc3ccccc3n(Cc3cn(-c4ccc(F)cc4)nn3)c2=O)c1` [Compound 48] had a concentration for half-maximal inhibition (IC50) of at least 60 µM.

With `O=C(/C=C/c1cc2ccccc2n(Cc2cn(-c3ccc(F)cc3)nn2)c1=O)c1cccc(F)c1` [Compound 42], the 50% inhibitory concentration (IC50) came out at 9.6 µM.

`O=C(/C=C/c1cc2ccccc2n(Cc2cn(-c3ccc(Cl)cc3)nn2)c1=O)c1ccccc1F` [Compound 50] displayed a concentration for half-maximal inhibition (IC50) of at least 50 µM.

The next data set concerns Giardia intestinalis trophozoites. The data set is described as follows: Drug susceptibility of Giardia trophozoites, ATP level by luminescence (BacTiter-Glo), 48 h incubation, anaerobic or microaerobic. It is filed as cell-based, Giardia intestinalis strain WB clone C6. The settings on record: Giardia duodenalis, 48 h, anaerobic conditions (Anaerocult A), 48 h, 37 °C, ATP level; read-out: Giardia (anaerobiosis) IC50. The method, then: Trophozoites of G. intestinalis strain WB clone C6 (ATCC No. 50803TM) were cultured axenically at 37^∘C in 25-cm^2 flasks containing Diamond's TYI-S-33 medium supplemented with 10% bovine calf serum, 1 mg/mL bovine bile, 0.1 g/L streptomycin and 100 U/mL penicillin. Typically, 50 ml medium was inoculated with 25 × 10^6 cells and after 2 days cells were harvested by chilling the flasks on ice for 30 min for drug susceptibility assays. […] The assays were performed following the procedure described in [Bahadur et al. (2014)], using sterile 96-well white clear-bottom plates. […] Each drug concentration was tested in at least six replicates. MTZ was used as an internal positive control in the assay. The microtiter plates were then incubated at 37^∘C under anaerobic or microaerobic conditions, ensured by the Anaerocult® A or the Anaerocult® […] (Merck), respectively. […] Following 48 h incubation with the compound to be tested, 100 μL of the BacTiter-Glo^TM Microbial Cell Viability Assay System reagent (Promega) was added to each well for one-step lysis and ATP level detection. Plates were then incubated at room temperature for 15 min and ATP levels finally detected by luminescence on a plate reader (Wallac Victor3 1420 Multilabel Counter, PerkinElmer). Luminometric data were calibrated using ATP standard curves and normalized to the ATP level measured in control DMSO-treated cells (taken as 100%). The measured ATP level percentage was plotted as a function of the compound concentration and the half-maximal inhibitory concentration (IC50) was obtained by fitting the resulting titration profile to the Hill equation ([Goutelle et al., 2008]). The selectivity index (SI) of the compounds was then calculated as the ratio between the IC50 value measured on human cells over the value determined on Giardia trophozoites (SI = IC50,Caco-2/IC50,Giardia). The antigiardial activity of the novel compounds 23-67 was tested under both anaerobic and microaerobic conditions. According to ([Dunn et al., 2010]; [Bahadur et al., 2014]), susceptibility of Giardia trophozoites to increasing concentrations of each compound was assessed based on ATP level determination by luminescence. Dose-response curves for each compound were obtained after 48 h-incubation and compared to the data collected under identical conditions with MTZ, the drug of choice for treatment of giardiasis. […] Typical dose-response curves are shown in Figure 2, whereas the IC50 values measured for the synthetic compounds and MTZ under anaerobic and microaerobic conditions are reported in Table 1. […] Under anaerobic conditions, 18 out of the 45 synthetic compounds were as effective as MTZ or more under identical conditions (see Table 1).
With `Cc1ccc(-n2cc(Cn3c(=O)c(/C=C/C(=O)c4ccc(Cl)cc4)cc4ccccc43)nn2)cc1` [Compound 35], the half-inhibitory concentration (IC50) was 2.4 µM.

For `Cc1ccc(-n2cc(Cn3c(=O)c(/C=C/C(=O)c4ccc(F)cc4)cc4ccccc43)nn2)cc1` [Compound 34], the IC50 was determined as 3.8 µM.

For `COc1cccc(C(=O)/C=C/c2cc3ccccc3n(Cc3cn(-c4ccc(F)cc4)nn3)c2=O)c1` [Compound 48], the 50% inhibitory concentration (IC50) was found to be 7 µM.

With `O=C(/C=C/c1cc2ccccc2n(Cc2cn(-c3ccc(F)cc3)nn2)c1=O)c1cccc(F)c1` [Compound 42], the half-maximal inhibitory concentration (IC50) was 3.3 µM.

Consider `O=C(/C=C/c1cc2ccccc2n(Cc2cn(-c3ccc(Cl)cc3)nn2)c1=O)c1ccccc1F` [Compound 50], for which the IC50 was 4.7 µM.

Still in this data set, the particulars now being: Giardia duodenalis, 48 h, microaerobic conditions (~5% O2, Anaerocult C), 48 h, 37 °C, ATP level; read-out: Giardia (microaerobiosis) IC50.
With `Cc1ccc(-n2cc(Cn3c(=O)c(/C=C/C(=O)c4ccc(Cl)cc4)cc4ccccc43)nn2)cc1` [Compound 35], the IC50 is 0.8 µM.

As for `Cc1ccc(-n2cc(Cn3c(=O)c(/C=C/C(=O)c4ccc(F)cc4)cc4ccccc43)nn2)cc1` [Compound 34], the IC50 stood at 1.2 µM.

For the compound `COc1cccc(C(=O)/C=C/c2cc3ccccc3n(Cc3cn(-c4ccc(F)cc4)nn3)c2=O)c1` [Compound 48], the IC50 was found to be 1.6 µM.

`O=C(/C=C/c1cc2ccccc2n(Cc2cn(-c3ccc(F)cc3)nn2)c1=O)c1cccc(F)c1` [Compound 42]: the IC50 turned out to be 0.7 µM.

As to `O=C(/C=C/c1cc2ccccc2n(Cc2cn(-c3ccc(Cl)cc3)nn2)c1=O)c1ccccc1F` [Compound 50], the IC50 came out at 0.9 µM.

The data set is the same for the next values; noted with them: human (Caco-2 cells) versus Giardia intestinalis, Caco-2, SI = IC50,Caco-2/IC50,Giardia; Giardia under anaerobiosis; read-out: Selectivity (IC50,Caco/IC50,Giardia) Anaerobiosis.
`Cc1ccc(-n2cc(Cn3c(=O)c(/C=C/C(=O)c4ccc(Cl)cc4)cc4ccccc43)nn2)cc1` [Compound 35]: the selectivity ratio at 48 h came to 2.9.

For the compound `Cc1ccc(-n2cc(Cn3c(=O)c(/C=C/C(=O)c4ccc(F)cc4)cc4ccccc43)nn2)cc1` [Compound 34], the selectivity ratio at 48 h amounted to 2.5.

On to `COc1cccc(C(=O)/C=C/c2cc3ccccc3n(Cc3cn(-c4ccc(F)cc4)nn3)c2=O)c1` [Compound 48], for which the selectivity ratio at 48 h is at least 8.

Consider `O=C(/C=C/c1cc2ccccc2n(Cc2cn(-c3ccc(F)cc3)nn2)c1=O)c1cccc(F)c1` [Compound 42], for which the selectivity ratio at 48 h worked out at 2.9.

`O=C(/C=C/c1cc2ccccc2n(Cc2cn(-c3ccc(Cl)cc3)nn2)c1=O)c1ccccc1F` [Compound 50]: the selectivity ratio at 48 h is at least 10.

The same data set, now with this note: human (Caco-2 cells) versus Giardia intestinalis, Caco-2, SI = IC50,Caco-2/IC50,Giardia; Giardia under microaerobiosis; read-out: Selectivity (IC50,Caco/IC50,Giardia) Microaerobiosis.
On to `Cc1ccc(-n2cc(Cn3c(=O)c(/C=C/C(=O)c4ccc(Cl)cc4)cc4ccccc43)nn2)cc1` [Compound 35], for which the selectivity ratio at 48 h worked out at 8.8.

Turning to `Cc1ccc(-n2cc(Cn3c(=O)c(/C=C/C(=O)c4ccc(F)cc4)cc4ccccc43)nn2)cc1` [Compound 34], the selectivity ratio at 48 h is 7.8.

For `COc1cccc(C(=O)/C=C/c2cc3ccccc3n(Cc3cn(-c4ccc(F)cc4)nn3)c2=O)c1` [Compound 48], the selectivity ratio at 48 h is at least 37.

For `O=C(/C=C/c1cc2ccccc2n(Cc2cn(-c3ccc(F)cc3)nn2)c1=O)c1cccc(F)c1` [Compound 42], the selectivity ratio at 48 h stood at 13.7.

On to `O=C(/C=C/c1cc2ccccc2n(Cc2cn(-c3ccc(Cl)cc3)nn2)c1=O)c1ccccc1F` [Compound 50], for which the selectivity ratio at 48 h is at least 55.
